Counter-ions that a name gives are not always drawn.
What was measured:
[1] = system: clinical Escherichia coli YT1-30; assay: Minimum inhibitory concentration (MIC), NCCLS method, 30 clinical strains; format: cell-based; set-up: Minimum inhibitory concentration (MIC): unit not given here
Description: (§1) Escherichia coli (E. coli) are one of the most common bacteria in the clinic. 30 strains of E. coli obtained from the clinic were named YT1-30. The minimum inhibitory concentrations (MIC) of 8 antibiotics against these 30 clinically obtained E. coli was detected according to the NCCLS method, and E. coli K12 was used as a control.

E. coli K12 = assay: Minimum inhibitory concentration (MIC), NCCLS method, control strain; format: cell-based, Escherichia coli; details: no unit in table, MIC in μg/mL
Description: as §1

Minimum inhibitory concentration (MIC) ([1]; strain YT1) | Minimum inhibitory concentration (MIC) ([1]; strain YT2) | Minimum inhibitory concentration (MIC) ([1]; strain YT3) | Minimum inhibitory concentration (MIC) ([1]; strain YT4) | Minimum inhibitory concentration (MIC) ([1]; strain YT5) | Minimum inhibitory concentration (MIC) ([1]; strain YT6) | Minimum inhibitory concentration (MIC) ([1]; strain YT7) | Minimum inhibitory concentration (MIC) ([1]; strain YT8) | Minimum inhibitory concentration (MIC) ([1]; strain YT9) | Minimum inhibitory concentration (MIC) ([1]; strain YT10) | Minimum inhibitory concentration (MIC) ([1]; strain YT11) | Minimum inhibitory concentration (MIC) ([1]; strain YT12) | Minimum inhibitory concentration (MIC) ([1]; strain YT13) | Minimum inhibitory concentration (MIC) ([1]; strain YT14) | Minimum inhibitory concentration (MIC) ([1]; strain YT15) | Minimum inhibitory concentration (MIC) ([1]; strain YT16) | Minimum inhibitory concentration (MIC) ([1]; strain YT17) | Minimum inhibitory concentration (MIC) ([1]; strain YT18) | Minimum inhibitory concentration (MIC) ([1]; strain YT19) | Minimum inhibitory concentration (MIC) ([1]; strain YT20) | Compound | other results
9.765 | 9.765 | 9.765 | 9.765 | 9.765 | 9.765 | 9.765 | 9.765 | 2.441 | 39.0625 | 2500 | 2500 | 2500 | 2500 | 2500 | 2500 | 2500 | 2.441 | 9.76 | 2.441 | NCC[C@H](O)C(=O)N[C@@H]1C[C@H](N)[C@@H](O[C@H]2O[C@H](CN)[C@@H](O)[C@H](O)[C@H]2O)[C@H](O)[C@H]1O[C@H]1O[C@H](CO)[C@@H](O)[C@H](N)[C@H]1O [Amikacin] | Minimum inhibitory concentration (MIC) ([1]; strain YT21): 2500; Minimum inhibitory concentration (MIC) ([1]; strain YT22): 625; Minimum inhibitory concentration (MIC) ([1]; strain YT23): 9.765; Minimum inhibitory concentration (MIC) ([1]; strain YT24): 9.765; Minimum inhibitory concentration (MIC) ([1]; strain YT25): 2500; Minimum inhibitory concentration (MIC) ([1]; strain YT26): 2500; Minimum inhibitory concentration (MIC) ([1]; strain YT27): 9.765; Minimum inhibitory concentration (MIC) ([1]; strain YT28): 2500; Minimum inhibitory concentration (MIC) ([1]; strain YT29): 9.765; Minimum inhibitory concentration (MIC) ([1]; strain YT30): 2.441; Minimum inhibitory concentration (MIC) (E. coli K12): 0.61
0.244 | 3.906 | 15.625 | 250 | 250 | 62.5 | 15.625 | 250 | 250 | 15.625 | 3.906 | 62.5 | 62.5 | 15.625 | 15.625 | 250 | 250 | 62.5 | 62.5 | 62.5 | CNC1CCCN(c2c(F)cc3c(=O)c(C(=O)O)cn(C4CC4)c3c2OC)C1 (stereo not shown) [Balofloxacin] | Minimum inhibitory concentration (MIC) ([1]; strain YT21): 15.625; Minimum inhibitory concentration (MIC) ([1]; strain YT22): 62.5; Minimum inhibitory concentration (MIC) ([1]; strain YT23): 15.625; Minimum inhibitory concentration (MIC) ([1]; strain YT24): 15.625; Minimum inhibitory concentration (MIC) ([1]; strain YT25): 0.244; Minimum inhibitory concentration (MIC) ([1]; strain YT26): 15.625; Minimum inhibitory concentration (MIC) ([1]; strain YT27): 15.625; Minimum inhibitory concentration (MIC) ([1]; strain YT28): 15.625; Minimum inhibitory concentration (MIC) ([1]; strain YT29): 15.625; Minimum inhibitory concentration (MIC) ([1]; strain YT30): 15.625; Minimum inhibitory concentration (MIC) (E. coli K12): 0.015
0.122 | 0.488 | 0.488 | 0.488 | 7.81 | 1.953 | 0.488 | 0.488 | 0.488 | 7.812 | 7.812 | 0.488 | 0.488 | 0.488 | 0.488 | 0.488 | 0.488 | 0.488 | 0.488 | 0.122 | CC(C)(O/N=C(\C(=O)N[C@@H]1C(=O)N2C(C(=O)[O-])=C(C[n+]3ccccc3)CS[C@H]12)c1csc(N)n1)C(=O)O [Ceftazidime] | MIC compared with the control E. coli K12 ([1]; strain YT1): the same as the control; Minimum inhibitory concentration (MIC) ([1]; strain YT21): 0.488; Minimum inhibitory concentration (MIC) ([1]; strain YT22): 0.488; Minimum inhibitory concentration (MIC) ([1]; strain YT23): 0.488; Minimum inhibitory concentration (MIC) ([1]; strain YT24): 7.812; Minimum inhibitory concentration (MIC) ([1]; strain YT25): 31.25; Minimum inhibitory concentration (MIC) ([1]; strain YT26): 31.25; Minimum inhibitory concentration (MIC) ([1]; strain YT27): 0.488; Minimum inhibitory concentration (MIC) ([1]; strain YT28): 31.25; Minimum inhibitory concentration (MIC) ([1]; strain YT29): 7.812; Minimum inhibitory concentration (MIC) ([1]; strain YT30): 7.812; Minimum inhibitory concentration (MIC) (E. coli K12): 0.122
390.625 | 390.625 | 390.625 | 1562.5 | 6250 | 1562.5 | 6250 | 6250 | 1562.5 | 6250 | 25000 | 25000 | 25000 | 25000 | 25000 | 25000 | 25000 | 390.625 | 390.625 | 390.625 | CCC[C@@H]1C[C@@H](C(=O)N[C@@H]([C@H]2O[C@H](SC)[C@H](O)[C@@H](O)[C@H]2O)[C@H](C)Cl)N(C)C1 [Clindamycin hydrochloride] | Minimum inhibitory concentration (MIC) ([1]; strain YT21): 390.625; Minimum inhibitory concentration (MIC) ([1]; strain YT22): 390.625; Minimum inhibitory concentration (MIC) ([1]; strain YT23): 390.625; Minimum inhibitory concentration (MIC) ([1]; strain YT24): 390.625; Minimum inhibitory concentration (MIC) ([1]; strain YT25): 390.625; Minimum inhibitory concentration (MIC) ([1]; strain YT26): 390.625; Minimum inhibitory concentration (MIC) ([1]; strain YT27): 390.625; Minimum inhibitory concentration (MIC) ([1]; strain YT28): 1562.5; Minimum inhibitory concentration (MIC) ([1]; strain YT29): 390.625; Minimum inhibitory concentration (MIC) ([1]; strain YT30): 390.625; Minimum inhibitory concentration (MIC) (E. coli K12): 24.414
39.0625 | 625 | 625 | 156.25 | 625 | 625 | 625 | 625 | 625 | 625 | 625 | 625 | 625 | 2500 | 2500 | 625 | 625 | 625 | 625 | 625 | CC[C@H]1OC(=O)[C@H](C)[C@@H](O[C@H]2C[C@@](C)(OC)[C@@H](O)[C@H](C)O2)[C@H](C)[C@@H](O[C@@H]2O[C@H](C)C[C@H](N(C)C)[C@H]2O)[C@](C)(O)C[C@@H](C)/C(=N\OCOCCOC)[C@H](C)[C@@H](O)[C@]1(C)O [Roxithromycin] | Minimum inhibitory concentration (MIC) ([1]; strain YT21): 625; Minimum inhibitory concentration (MIC) ([1]; strain YT22): 625; Minimum inhibitory concentration (MIC) ([1]; strain YT23): 625; Minimum inhibitory concentration (MIC) ([1]; strain YT24): 625; Minimum inhibitory concentration (MIC) ([1]; strain YT25): 625; Minimum inhibitory concentration (MIC) ([1]; strain YT26): 625; Minimum inhibitory concentration (MIC) ([1]; strain YT27): 625; Minimum inhibitory concentration (MIC) ([1]; strain YT28): 2500; Minimum inhibitory concentration (MIC) ([1]; strain YT29): 625; Minimum inhibitory concentration (MIC) ([1]; strain YT30): 156.25; Minimum inhibitory concentration (MIC) (E. coli K12): 9.765

Compound | Minimum inhibitory concentration (MIC) ([1]; strain YT1) | Minimum inhibitory concentration (MIC) ([1]; strain YT2) | Minimum inhibitory concentration (MIC) ([1]; strain YT3) | Minimum inhibitory concentration (MIC) ([1]; strain YT4) | Minimum inhibitory concentration (MIC) ([1]; strain YT5) | Minimum inhibitory concentration (MIC) ([1]; strain YT6) | Minimum inhibitory concentration (MIC) ([1]; strain YT7) | Minimum inhibitory concentration (MIC) ([1]; strain YT8) | Minimum inhibitory concentration (MIC) ([1]; strain YT9) | Minimum inhibitory concentration (MIC) ([1]; strain YT10) | Minimum inhibitory concentration (MIC) ([1]; strain YT11) | Minimum inhibitory concentration (MIC) ([1]; strain YT12) | Minimum inhibitory concentration (MIC) ([1]; strain YT13) | Minimum inhibitory concentration (MIC) ([1]; strain YT14) | Minimum inhibitory concentration (MIC) ([1]; strain YT15) | Minimum inhibitory concentration (MIC) ([1]; strain YT16) | Minimum inhibitory concentration (MIC) ([1]; strain YT17) | Minimum inhibitory concentration (MIC) ([1]; strain YT18) | Minimum inhibitory concentration (MIC) ([1]; strain YT19) | Minimum inhibitory concentration (MIC) ([1]; strain YT20) | other results
CN(C)[C@@H]1C(O)=C(C(N)=O)C(=O)[C@@]2(O)C(O)=C3C(=O)c4c(O)cccc4[C@@](C)(O)[C@H]3C[C@@H]12 [Tetracycline] | 6.1 | 24.414 | 97.656 | 390.625 | 390.625 | 97.656 | 97.656 | 97.656 | 97.656 | 97.656 | 97.656 | 6250 | 6250 | 6250 | 6250 | 6250 | 6250 | 1562.5 | 1562.5 | 1562.5 | Minimum inhibitory concentration (MIC) ([1]; strain YT21): 1562.5; Minimum inhibitory concentration (MIC) ([1]; strain YT22): 1562.5; Minimum inhibitory concentration (MIC) ([1]; strain YT23): 1562.5; Minimum inhibitory concentration (MIC) ([1]; strain YT24): 1562.5; Minimum inhibitory concentration (MIC) ([1]; strain YT25): 6.103; Minimum inhibitory concentration (MIC) ([1]; strain YT26): 97.656; Minimum inhibitory concentration (MIC) ([1]; strain YT27): 97.656; Minimum inhibitory concentration (MIC) ([1]; strain YT28): 390.625; Minimum inhibitory concentration (MIC) ([1]; strain YT29): 390.625; Minimum inhibitory concentration (MIC) ([1]; strain YT30): 390.625; Minimum inhibitory concentration (MIC) (E. coli K12): 1.526

Reference: patent publication US11752120B2, “Use of succinic acid in increasing sensitivity of bacteria to antibiotics” (SUN YAT-SEN UNIVERSITY, priority 2018, dated 2023)
